Measurements as given in PMC2376372, “3-Bromophenyl 6-acetoxymethyl-2-oxo-2H-1-benzopyran-3-carboxylate inhibits cancer cell invasion in vitro and tumour growth in vivo” (British Journal of Cancer, 2003).

Legend:
[1] = target: α-CT; conditions: pH 7.5, 25°C; ref Pochet et al (2000); cited from earlier work
[2] = tested on: MDA-MB231 cells; experiment: Tumorigenicity of MDA-MB231 cells injected s.c. with matrigel in nude mice; type: in vivo; conditions: 30 mg kg^−1 i.p. three times per week
Procedure: Matrigel (basement membrane proteins) was extracted from the mouse Engelbreth–Holm–Swarm (EHS) tumour as previously described ([Noël et al, 1991]). Tumoral cells were detached by trypsinisation, harvested by centrifugation, resuspended in 0.25 ml of serum-free medium and mixed with an equal volume of cold matrigel (10 mg ml^−1). The suspension (1 × 10^6 cells injection site^−1) was injected subcutaneously (s.c.) on both body flanks of 6–8-week-old female athymic nude mice (n=6; nu/nu Swiss mice from Iffa credo, L'Arbresle, France). The coumarin derivatives in PBS were injected intraperitoneally (30 mg kg^−1) three times per week during the whole assay.
The tumorigenicity defines the capacity of cells to induce tumour formation. The larger (a) and smaller (b) diameters of the apparent tumour were measured and served for tumour volume calculation according to a × b^2 × 0.4 ([Attia and Weiss, 1966]). Injected mice were examined weekly. Tumours presenting a volume higher than 80 mm^3 and which maintained a progressive growth were taken into account ([Noël et al, 1992]). Results are expressed as the mean (±s.e.m.) of the tumour volumes.

| Compound | ki/KI or kobs/[I], α-CT [1] | effect on tumour incidence, MDA-MB231 [2] | effect on tumour growth, MDA-MB231 ([2]; ANOVA, P<0.05) | melting point |
| --- | --- | --- | --- | --- |
| CC(=O)OCc1ccc2oc(=O)c(C(=O)Oc3cccc(Cl)c3)cc2c1 [compound 4, 3-chlorophenyl 6-acetoxymethyl-2-oxo-2H-1-benzopyran-3-carboxylate] | 20000^a M^−1 s^−1 |  |  |  |
| CC(=O)OCc1ccc2oc(=O)c(C(=O)Oc3cccc(Br)c3)cc2c1 [compound 7, 3-bromophenyl 6-acetoxy-methyl-2-oxo-2H-1-benzopyran-3-carboxylate] |  | did not affect tumour incidence | reduced significantly tumour growth | 141 to 142 °C |
